Measured values reported in PMC10657444, “Design and evaluation of tadpole-like conformational antimicrobial peptides” (Communications Biology, 2023).
≈ marks a conversion by molar mass, not a printed value. Non-standard residues stand in square brackets, D forms with d. Residues, ends and D or L forms follow the SMILES beside them.

Tests used:
[1] = test system: MRSA 3393; assay type: cell-based, Staphylococcus aureus; settings: 3393
Excerpt: (§1) Bacteria were cultivated in Luria-Bertani (LB) broth.

[2] = test system: MRSA ATCC 43300; assay type: cell-based, Staphylococcus aureus; settings: ATCC 43300
Excerpt: as §1

[3] = test system: MRSA USA 300; assay type: cell-based, Staphylococcus aureus
Excerpt: as §1

[4] = test system: MRSA USA 300; assay: Membrane depolarization assay, DiSC3(5); assay type: cell-based, Staphylococcus aureus
Protocol: MRSA USA 300 and K. pneumoniae ATCC 700603 were inoculated into 5 mL of LB and shaken at 37°C and 225 rpm to OD600 ≈ 0.5 (i.e., mid-logarithmic phase). Bacteria were collected by centrifugation at 8000 rpm for 5 min, and washed twice with assay buffer (5 mM HEPES, 20 mM glucose, 10 mM KCl, pH 7.2). Bacteria were resuspended in the assay buffer to OD595 ≈ 0.1. DiSC3(5) was added to the cells at final concentration of 0.3 µM, wrapped with aluminum foil, and incubated at 37°C, until a stable fluorescence was observed. Two microliter of compound or DMSO were transferred into 96-well black walled polystyrene plates, to which was added 98 µL per well of the dye-saturated bacterial cells to initiate the reaction. The final concentration of HT2 and RI-HT2 were 1 ×, 2 ×, 4 × and 8 × MIC. Plates were immediately read on an Envison at λex = 622 nm/ λem = 670 nm with a kinetic program (reading every 1 min for 10 min) until the maximal intensity achieved was observed.

[5] = test system: MRSA USA 300; assay: microbe, parasite or virus in culture; assay type: cell-based, Staphylococcus aureus
Protocol: (§2) MRSA USA 300 and K. pneumoniae ATCC 700603 were employed to assess the development of resistance. From inoculated microtiter panels, an aliquot of the well with the highest concentration permitting growth was taken and back diluted in fresh media to a turbidity of a 0.5 McFarland standard. This suspension was then further diluted and used to inoculate a fresh MIC panel resulting in a final concentration of 5 × 10^6 CFU/mL. Panels were incubated according to CLSI guidelines (M07, 11th edition, 2018), MICs were recorded and the next inoculum was prepared from the well containing the highest concentration of drug that allowed growth in identical fashion as described above.

[6] = test system: K. pneumoniae ATCC 700603; assay: microbe, parasite or virus in culture; assay type: cell-based, Klebsiella pneumoniae
Protocol: as §2

[7] = test system: MRSA USA 300; assay: Scanning electron microscopy; assay type: cell-based, Staphylococcus aureus; settings: 2 × MIC, 60 min
Protocol: (§3) Mid-log phase bacteria (MRSA USA 300 and K. pneumoniae ATCC 700603) grown in LB broth were adjusted to a density of 5 × 10^6 CFU/mL. […] All samples were centrifuged at 8000 rpm for 5 min, washed and then resuspended in PBS. Bacterial cells were fixed with 2.5% glutaraldehyde, and then incubated at 37°C on a glass slide for 20 min. Samples were dehydrated by passing through gradient ethanol (10%, 30%, 50%, 70%, 90%, and 100%) for 5 min at each concentration. Slides were dried with an automatic critical point drying instrument (Leica EM CPD300), and a small amount of gold was sputtered onto the samples using a sputter coater system to avoid charging in the microscope. Finally, the bacteria were visualized under a field-emission scanning electron microscopy (FESEM) device (Sirion 200).

[8] = test system: K. pneumoniae ATCC 700603; assay: Scanning electron microscopy; assay type: cell-based, Klebsiella pneumoniae; settings: 2 × MIC, 60 min
Protocol: as §3

**Q.** What does the source list for `CC[C@@H](C)[C@@H](NC(=O)[C@@H](Cc1ccccc1)NC(=O)[C@@H](Cc1ccccc1)NC(=O)[C@@H](Cc1ccccc1)NC(=O)[C@H](N)Cc1ccccc1)C(=O)N[C@H](CCCNC(=N)N)C(=O)N[C@H](CCCNC(=N)N)C(=O)N[C@H](CC(C)C)C(=O)N[C@H](Cc1ccccc1)C(=O)N[C@H](CCCNC(=N)N)C(N)=O` [RI-HT2] (H-[dF][dF][dF][dF][dI][dR][dR][dL][dF][dR]-NH2; N-terminus assumed)?
**A.** MIC Gram+ MRSA 3393 [1]: 3.13 µM (≈ 4.53 µg/mL); MIC Gram+ MRSA ATCC 43300 [2]: 3.13 µM (≈ 4.53 µg/mL); MIC Gram+ MRSA USA 300 [3]: 3.13 µM (≈ 4.53 µg/mL); concentration at which DiSC3(5) fluorescence intensity changed significantly [4]: 8 × MIC; Concentration (MIC in drug resistance assay) ([5]; MRSA USA 300, day 0): 2 µg/mL; Concentration (MIC in drug resistance assay) ([5]; MRSA USA 300, day 1): 2 µg/mL; Concentration (MIC in drug resistance assay) ([5]; MRSA USA 300, day 2): 2 µg/mL; Concentration (MIC in drug resistance assay) ([5]; MRSA USA 300, day 3): 2 µg/mL; Concentration (MIC in drug resistance assay) ([5]; MRSA USA 300, day 4): 4 µg/mL; Concentration (MIC in drug resistance assay) ([5]; MRSA USA 300, day 5): 2 µg/mL; Concentration (MIC in drug resistance assay) ([5]; MRSA USA 300, day 6): 2 µg/mL; Concentration (MIC in drug resistance assay) ([5]; MRSA USA 300, day 7): 4 µg/mL; Concentration (MIC in drug resistance assay) ([5]; MRSA USA 300, day 8): 4 µg/mL; Concentration (MIC in drug resistance assay) ([5]; MRSA USA 300, day 9): 8 µg/mL; Concentration (MIC in drug resistance assay) ([5]; MRSA USA 300, day 10): 4 µg/mL; Concentration (MIC in drug resistance assay) ([5]; MRSA USA 300, day 11): 4 µg/mL; Concentration (MIC in drug resistance assay) ([5]; MRSA USA 300, day 12): 4 µg/mL; Concentration (MIC in drug resistance assay) ([5]; MRSA USA 300, day 13): 4 µg/mL; Concentration (MIC in drug resistance assay) ([5]; MRSA USA 300, day 14): 4 µg/mL; Concentration (MIC in drug resistance assay) ([5]; MRSA USA 300, day 15): 8 µg/mL; Concentration (MIC in drug resistance assay) ([5]; MRSA USA 300, day 16): 4 µg/mL; Concentration (MIC in drug resistance assay) ([5]; MRSA USA 300, day 17): 4 µg/mL; Concentration (MIC in drug resistance assay) ([5]; MRSA USA 300, day 18): 8 µg/mL; Concentration (MIC in drug resistance assay) ([5]; MRSA USA 300, day 19): 8 µg/mL; Concentration (MIC in drug resistance assay) ([5]; MRSA USA 300, day 20): 8 µg/mL; Concentration (MIC in drug resistance assay) ([5]; MRSA USA 300, day 21): 4 µg/mL; Concentration (MIC in drug resistance assay) ([5]; MRSA USA 300, day 22): 8 µg/mL; Concentration (MIC in drug resistance assay) ([5]; MRSA USA 300, day 23): 8 µg/mL; Concentration (MIC in drug resistance assay) ([5]; MRSA USA 300, day 24): 4 µg/mL; Concentration (MIC in drug resistance assay) ([5]; MRSA USA 300, day 25): 8 µg/mL; Concentration (MIC in drug resistance assay) ([5]; MRSA USA 300, day 26): 4 µg/mL; Concentration (MIC in drug resistance assay) ([5]; MRSA USA 300, day 27): 8 µg/mL; Concentration (MIC in drug resistance assay) ([5]; MRSA USA 300, day 28): 8 µg/mL; Concentration (MIC in drug resistance assay) ([5]; MRSA USA 300, day 29): 8 µg/mL; Concentration (MIC in drug resistance assay) ([5]; MRSA USA 300, day 30): 8 µg/mL; Concentration (MIC in drug resistance assay) ([5]; MRSA USA 300, day 31): 8 µg/mL; Concentration (MIC in drug resistance assay) ([5]; MRSA USA 300, day 32): 4 µg/mL; Concentration (MIC in drug resistance assay) ([5]; MRSA USA 300, day 33): 8 µg/mL; Concentration (MIC in drug resistance assay) ([5]; MRSA USA 300, day 34): 8 µg/mL; Concentration (MIC in drug resistance assay) ([5]; MRSA USA 300, day 35): 8 µg/mL; Concentration (MIC in drug resistance assay) ([5]; MRSA USA 300, day 36): 8 µg/mL; Concentration (MIC in drug resistance assay) ([5]; MRSA USA 300, day 37): 8 µg/mL; Concentration (MIC in drug resistance assay) ([5]; MRSA USA 300, day 38): 8 µg/mL; Concentration (MIC in drug resistance assay) ([5]; MRSA USA 300, day 39): 8 µg/mL; Concentration (MIC in drug resistance assay) ([5]; MRSA USA 300, day 40): 4 µg/mL; increase in MIC after 40 passages ([5]; serial passage at sub-MIC): four-fold; Concentration (MIC in drug resistance assay) ([6]; K. pneumoniae ATCC 700603, day 0): 6.25 µg/mL; Concentration (MIC in drug resistance assay) ([6]; K. pneumoniae ATCC 700603, day 1): 6.25 µg/mL; Concentration (MIC in drug resistance assay) ([6]; K. pneumoniae ATCC 700603, day 2): 6.25 µg/mL; Concentration (MIC in drug resistance assay) ([6]; K. pneumoniae ATCC 700603, day 3): 6.25 µg/mL; Concentration (MIC in drug resistance assay) ([6]; K. pneumoniae ATCC 700603, day 4): 12.5 µg/mL; Concentration (MIC in drug resistance assay) ([6]; K. pneumoniae ATCC 700603, day 5): 6.25 µg/mL; Concentration (MIC in drug resistance assay) ([6]; K. pneumoniae ATCC 700603, day 6): 6.25 µg/mL; Concentration (MIC in drug resistance assay) ([6]; K. pneumoniae ATCC 700603, day 7): 12.5 µg/mL; Concentration (MIC in drug resistance assay) ([6]; K. pneumoniae ATCC 700603, day 8): 25 µg/mL; Concentration (MIC in drug resistance assay) ([6]; K. pneumoniae ATCC 700603, day 9): 12.5 µg/mL; Concentration (MIC in drug resistance assay) ([6]; K. pneumoniae ATCC 700603, day 10): 12.5 µg/mL; Concentration (MIC in drug resistance assay) ([6]; K. pneumoniae ATCC 700603, day 11): 12.5 µg/mL; Concentration (MIC in drug resistance assay) ([6]; K. pneumoniae ATCC 700603, day 12): 25 µg/mL; Concentration (MIC in drug resistance assay) ([6]; K. pneumoniae ATCC 700603, day 13): 12.5 µg/mL; Concentration (MIC in drug resistance assay) ([6]; K. pneumoniae ATCC 700603, day 14): 25 µg/mL; Concentration (MIC in drug resistance assay) ([6]; K. pneumoniae ATCC 700603, day 15): 25 µg/mL; Concentration (MIC in drug resistance assay) ([6]; K. pneumoniae ATCC 700603, day 16): 12.5 µg/mL; Concentration (MIC in drug resistance assay) ([6]; K. pneumoniae ATCC 700603, day 17): 25 µg/mL; Concentration (MIC in drug resistance assay) ([6]; K. pneumoniae ATCC 700603, day 18): 25 µg/mL; Concentration (MIC in drug resistance assay) ([6]; K. pneumoniae ATCC 700603, day 19): 25 µg/mL; Concentration (MIC in drug resistance assay) ([6]; K. pneumoniae ATCC 700603, day 20): 25 µg/mL; Concentration (MIC in drug resistance assay) ([6]; K. pneumoniae ATCC 700603, day 21): 25 µg/mL; Concentration (MIC in drug resistance assay) ([6]; K. pneumoniae ATCC 700603, day 22): 25 µg/mL; Concentration (MIC in drug resistance assay) ([6]; K. pneumoniae ATCC 700603, day 23): 25 µg/mL; Concentration (MIC in drug resistance assay) ([6]; K. pneumoniae ATCC 700603, day 24): 25 µg/mL; Concentration (MIC in drug resistance assay) ([6]; K. pneumoniae ATCC 700603, day 25): 25 µg/mL; Concentration (MIC in drug resistance assay) ([6]; K. pneumoniae ATCC 700603, day 26): 12.5 µg/mL; Concentration (MIC in drug resistance assay) ([6]; K. pneumoniae ATCC 700603, day 27): 25 µg/mL; Concentration (MIC in drug resistance assay) ([6]; K. pneumoniae ATCC 700603, day 28): 25 µg/mL; Concentration (MIC in drug resistance assay) ([6]; K. pneumoniae ATCC 700603, day 29): 25 µg/mL; Concentration (MIC in drug resistance assay) ([6]; K. pneumoniae ATCC 700603, day 30): 25 µg/mL; Concentration (MIC in drug resistance assay) ([6]; K. pneumoniae ATCC 700603, day 31): 25 µg/mL; Concentration (MIC in drug resistance assay) ([6]; K. pneumoniae ATCC 700603, day 32): 12.5 µg/mL; Concentration (MIC in drug resistance assay) ([6]; K. pneumoniae ATCC 700603, day 33): 25 µg/mL; Concentration (MIC in drug resistance assay) ([6]; K. pneumoniae ATCC 700603, day 34): 12.5 µg/mL; Concentration (MIC in drug resistance assay) ([6]; K. pneumoniae ATCC 700603, day 35): 25 µg/mL; Concentration (MIC in drug resistance assay) ([6]; K. pneumoniae ATCC 700603, day 36): 25 µg/mL; Concentration (MIC in drug resistance assay) ([6]; K. pneumoniae ATCC 700603, day 37): 12.5 µg/mL; Concentration (MIC in drug resistance assay) ([6]; K. pneumoniae ATCC 700603, day 38): 25 µg/mL; Concentration (MIC in drug resistance assay) ([6]; K. pneumoniae ATCC 700603, day 39): 25 µg/mL; Concentration (MIC in drug resistance assay) ([6]; K. pneumoniae ATCC 700603, day 40): 12.5 µg/mL; increase in MIC after 40 passages ([6]; serial passage at sub-MIC): four-fold; cell surface morphology by SEM (in words) [7]: rough, shrunken, wrinkled and partially damaged; cell surface morphology by SEM (in words) [8]: rough, shrunken, wrinkled and partially damaged
